# Results: patent US7504508B2, “PGD2 receptor antagonists for the treatment of inflammatory diseases” (Millennium Pharmaceuticals, Inc., priority 2002, dated 2009)
# Target: T1, cloned human CRTH2 receptor (Homo sapiens, UniProt Q9Y5Y4)
# T1 construct: purchased Biosignal; host or cells: HEK-293 cells stably expressing human CRTH2 and G-alpha-16 (membranes)
# T1 sequence (Q9Y5Y4 1-395): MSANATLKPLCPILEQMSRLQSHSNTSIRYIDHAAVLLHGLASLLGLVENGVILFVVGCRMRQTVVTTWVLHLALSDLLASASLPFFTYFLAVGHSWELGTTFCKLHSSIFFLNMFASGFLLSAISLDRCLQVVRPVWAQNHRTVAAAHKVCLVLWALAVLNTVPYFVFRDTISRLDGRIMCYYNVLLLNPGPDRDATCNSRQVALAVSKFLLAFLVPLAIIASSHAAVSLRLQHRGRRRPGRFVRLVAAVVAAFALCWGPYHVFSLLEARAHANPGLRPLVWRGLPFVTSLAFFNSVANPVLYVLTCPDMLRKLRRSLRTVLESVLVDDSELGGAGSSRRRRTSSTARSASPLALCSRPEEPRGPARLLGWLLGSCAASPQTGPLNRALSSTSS
# Assay: Radioligand membrane binding assay: inhibition of [3H] PGD2 binding to CRTH2 (Scintillation Proximity Assay)
# Details: inhibition of [3H] PGD2 binding to membranes of HEK-293 cells stably expressing human CRTH2; SPA; 10 point curve from 10 μM; room temperature, approximately 2 hours
# Description: This radioligand membrane binding assay evaluates the ability of compounds to inhibit [^3H] Prostaglandin D2 (PGD2) binding to the cloned human CRTH2 receptor stably expressed in HEK-293 cells (expressing human CRTh2 receptor and α subunit or the heteronimeric G protein 16 were prepared by Biosignal Company) using Scintillation Proximity Assay.
# A binding buffer containing 50 mM Tris-HCl (pH 7.5), 5 mM MgCl2 and 1 mM EDTA was prepared immediately prior to performing the assay. A bead/membrane solution at twice the final assay concentration comprising membranes (membranes bought from Biosignal) from the HEK-293 cells cloned to express CRTH2 receptor bound to and [3H] PGD2 at twotimes the final assay concentration were prepared and stored on ice before adding to wells. Cold PGD2 at twenty times the final assay concentration was prepared and stored on ice before adding to wells defining non-specific binding (NSB) corning plates #3653 were used for this assay.
# 10 mM stock concentrations of compounds in 100% DMSO were prepared and stored at room temperature. A 10 point concentration response curve was then constructed for each compound, starting at 10 μM (final assay concentration). The compounds were prepared at 40 times final assay concentrations with nine consequent-3-fold dilutions.
# 0.1 μl of each concentration of compound were added to the appropriate well of the 384 plate and 2 μl of cold PGD2 was added into the wells defining NSB. 20 μl of [^3H] PGD2 and then 20 μl of 2× of bead/membrane solution were then added to each well.
# The plates were allowed to incubate at room temperature for approximately 2 hours and then counted on Packard Topcount using SPA tritium protocol for 1 minute/well.
# The percent inhibition of PGD2 binding (PGD2 used at the KD value or lower) to the HEK-293 cell membranes was determined, the assay was always run as duplicate for n=1 for a total of n=2.
row,Compound,Ki [µM]
1,"CCC(=O)N(c1ccc(Cl)cc1)C1CC(C)N(C(=O)c2ccc(F)cc2)c2ccc(/C=C/C(=O)O)cc21 (racemic) [Compound B-73, (±)-Cis-3-[4-[(4-chloro-phenyl)-propionyl-amino]-1-(4-fluoro-benzoyl)-2-methyl-1,2,3,4-tetrahydro-quinolin-6-yl]-acrylic acid]",< 10
2,"CCN(CC)c1ccc(N(C(C)=O)[C@@H]2C[C@H](C)N(C(=O)c3ccc(N(C)C)cc3)c3cc(N(CC)CC)ccc32)cc1 (racemic) [Compound B-84, (±)-Cis-N-[7-diethylamino-1-(4-dimethylamino-benzoyl)-2-methyl-1,2,3,4-tetrahydro-quinolin-4-yl]-N-(4-diethylamino-phenyl)-acetamide]",< 10
3,"CCC(=O)N(c1ccc(Cl)cc1)[C@@H]1C[C@H](C)N(C(=O)c2ccc(F)cc2)c2cccc(OC)c21 (racemic) [Compound B-86, (±)-Cis-N-(4-chloro-phenyl)-N-[1-(4-fluoro-benzoyl)-5-methoxy-2-methyl-1,2,3,4-tetrahydro-quinolin-4-yl]-propionamide]",< 10
4,"CCC[C@H]1C[C@@H](N(C(=O)CC)c2ccc(Cl)cc2)c2ccccc2N1C(=O)c1ccc(F)cc1 (racemic) [Compound B-103, (±)-Cis-N-(4-chloro-phenyl)-N-[1-(4-fluoro-benzoyl)-2-propyl-1,2,3,4-tetrahydro-quinolin-4-yl]-propionamide]",< 10
5,"CCC(=O)OC[C@H]1C[C@@H](N(C(=O)CC)c2ccc(Cl)cc2)c2ccccc2N1C(=O)c1ccc(F)cc1 (racemic) [Compound B-104, (±)-Cis-propionic acid 4-[(4-chloro-phenyl)-propionyl-amino]-1-(4-fluoro-benzoyl)-1,2,3,4-tetrahydro-quinolin-2-ylmethyl ester]",< 10
6,"CCC(=O)N(c1ccc(Cl)cc1)[C@@H]1C[C@H](CO)N(C(=O)c2ccc(F)cc2)c2ccccc21 (racemic) [Compound B-105, (±)-Cis-N-(4-chloro-phenyl)-N-[1-(4-fluoro-benzoyl)-2-hydroxymethyl-1,2,3,4-tetrahydro-quinolin-4-yl]-propionamide]",< 10
7,"CCC(=O)N(c1ccc(Cl)cc1)[C@@H]1C[C@H](CN(CC)CC)N(C(=O)c2ccc(F)cc2)c2ccccc21 (racemic) [Compound B-106, (±)-Cis-N-(4-chloro-phenyl)-N-[2-diethylaminomethyl-1-(4-fluoro-benzoyl)-1,2,3,4-tetrahydro-quinolin-4-yl]-propionamide]",< 10
8,"CCC(=O)N(c1ccc(Cl)cc1)[C@@H]1C[C@H](COC)N(C(=O)c2ccc(F)cc2)c2ccccc21 (racemic) [Compound B-107, (±)-Cis-N-(4-chloro-phenyl)-N-[1-(4-fluoro-benzoyl)-2-methoxymethyl-1,2,3,4-tetrahydro-quinolin-4-yl]-propionamide]",< 10
9,"CCC(=O)N(c1ccc(Cl)cc1)[C@@H]1C[C@H](C(F)(F)F)N(C(=O)c2ccc(F)cc2)c2ccc(OC)cc21 (racemic) [Compound B-109, (±)-Cis-N-(4-chloro-phenyl)-N-[1-(4-fluoro-benzoyl)-6-methoxy-2-trifluoromethyl-1,2,3,4-tetrahydro-quinolin-4-yl]-propionamide]",< 10
10,"CCC(=O)N(c1ccc(Cl)cc1)[C@@H]1C[C@H](C(F)(F)F)N(C(=O)c2cccc(OC)c2)c2ccc(OC)cc21 (racemic) [Compound B-110, (±)-Cis-N-(4-chloro-phenyl)-N-[6-methoxy-1-(3-methoxy-benzoyl)-2-trifluoromethyl-1,2,3,4-tetrahydro-quinolin-4-yl]-propionamide]",< 10
11,"CCC(=O)N(c1ccc(Cl)cc1)[C@@H]1C[C@H](C(F)(F)F)N(C(=O)c2ccco2)c2ccc(OC)cc21 (racemic) [Compound B-111, (±)-Cis-N-(4-chloro-phenyl)-N-[1-(furan-2-carbonyl)-6-methoxy-2-trifluoromethyl-1,2,3,4-tetrahydro-quinolin-4-yl]-propionamide]",< 10

# Further lines, results first:
row,Ki [µM],Compound
1,< 10,"COc1cccc(C(=O)N2c3c(C)cccc3[C@H](N(C(C)=O)c3ccc(Cl)cc3)C[C@@H]2C)c1 (racemic) [Compound B-74, (±)-Cis-N-(4-chloro-phenyl)-N-[1-(3-methoxy-benzoyl)-2,8-dimethyl-1,2,3,4-tetrahydro-quinolin-4-yl]-acetamide]"
2,< 10,"CCC(=O)N(c1ccc(Cl)cc1)[C@@H]1C[C@H](CCc2ccccc2)N(C(=O)c2ccc(F)cc2)c2ccccc21 (racemic) [Compound B-97, (±)-Cis-N-(4-chloro-phenyl)-N-[1-(4-fluoro-benzoyl)-2-phenethyl-1,2,3,4-tetrahydro-quinolin-4-yl]-propionamide]"
3,< 60,"COc1cccc(C(=O)N2c3ccccc3[C@H](N(C(C)=O)c3ccccc3)C[C@@H]2c2ccccc2)c1 (racemic) [Compound B-100, (±)-Cis-N-[1-(3-methoxy-benzoyl)-2-phenyl-1,2,3,4-tetrahydro-quinolin-4-yl]-N-phenyl-acetamide]"
4,< 10,"CCOC(=O)[C@H]1C[C@@H](N(C(C)=O)c2ccccc2)c2ccccc2N1C(=O)c1ccc(F)cc1 (racemic) [Compound B-101, (±)-Cis-4-(acetyl-phenyl-amino)-1-(4-fluoro-benzoyl)-1,2,3,4-tetrahydro-quinoline-2-carboxylic acid ethyl ester]"
5,< 10,"CC(=O)N(c1ccccc1)[C@@H]1C[C@H](C(=O)O)N(C(=O)c2ccc(F)cc2)c2ccccc21 (racemic) [Compound B-102, (±)-Cis-4-(acetyl-phenyl-amino)-1-(4-fluoro-benzoyl)-1,2,3,4-tetrahydro-quinoline-2-carboxylic acid]"
6,< 10,"CCC(=O)N(c1ccc(Cl)cc1)[C@@H]1C[C@H](c2ccccc2)N(C(=O)c2ccc(F)cc2)c2ccccc21 (racemic) [Compound B-108, (±)-Cis-N-(4-chloro-phenyl)-N-[1-(4-fluoro-benzoyl)-2-phenyl-1,2,3,4-tetrahydro-quinolin-4-yl]-propionamide]"
7,< 10,"CCC(=O)N(c1ccc(Cl)cc1)[C@@H]1C[C@H](Cc2ccccc2)N(C(=O)c2ccc(F)cc2)c2ccccc21 (racemic) [Compound B-112, (±)-Cis-N-[2-benzyl-1-(4-fluoro-benzoyl)-1,2,3,4-tetrahydro-quinolin-4-yl]-N-(4-chloro-phenyl)-propionamide]"
8,< 60,"CC(=O)N(c1ccccc1)[C@H]1C[C@@H](C)N(C(=O)c2ccc(C(C)(C)C)cc2)c2ccccc21 [Compound A-8, (2R,4S)-cis-N-[1-(4-tert-butyl-benzoyl)-2-methyl-1,2,3,4-tetrahydro-quinolin-4-yl]-N-phenyl-acetamide]"
9,< 10,"CC(=O)N(c1ccccc1)[C@H]1C[C@@H](C)N(C(=O)c2cccs2)c2ccccc21 [Compound A-11, (2R,4S)-N-[2-methyl-1-(thiophene-2-carbonyl)-1,2,3,4-tetrahydro-quinolin-4-yl]-N-phenyl-acetamide]"
10,< 10,"CCC(=O)N(c1ccccc1)[C@H]1C[C@@H](C)N(C(=O)c2ccc(C3CCN(C(C)=O)CC3)cc2)c2ccccc21 [Compound A-51, (2R,4S)-cis-N-{1-[4-(1-acetyl-piperidin-4-yl)-benzoyl]-2-methyl-1,2,3,4-tetrahydro-quinolin-4-yl}-N-phenyl-propionamide]"
11,< 60,CC(=O)N(c1ccccc1)C1CC(C)N(C(=O)c2ccc(F)cc2)c2ccccc21 (stereo not shown) [Compound A-53]
